This passage reports EC50, IC50 and outcome results from PubChem BioAssay AID179 (DTP/NCI, 2004).

The experiment deals with CEM cells HIV-1 protection, formazan growth assay. Put plainly: NCI AIDS Antiviral Assay. The note with it: for IC50: measured here: growth of uninfected CEM cells. In outline:
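Protection of CEM cells against HIV-1 was scored from cell growth (soluble formazan) across five concentrations, with parallel uninfected cells. Lack of protection may reflect toxicity.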

As a reminder, the EC50 is the concentration that produces a half-maximal response. In general, IC50 refers to the concentration needed to halve the response being measured. Read a low IC50 as greater potency in that assay.

“And” between values parts separate entries of the source, which are not always exact repeats. Identical values can stand only once. The source made the active and inactive calls.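 Rule for the calls: active = compounds giving half or more protection of infected cells from virus-caused growth loss, again on retest; inactive = the rest.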

Turning to `Cc1nc2nn[nH]n2c(=O)c1CCO`, the EC50 was more than 200 µM and the IC50 is more than 200 µM.

As to `O=c1oc2ccccc2c(O)c1Cc1ccccc1Cc1c(O)c2ccccc2oc1=O`, the EC50 was more than 200 µM and the IC50 was found to be 102 µM.

As for `CCOc1ccc(NC(=S)N/C=C(/C#N)C(N)=O)cc1`, the EC50 is more than 200 µM and the IC50 came to 158 µM.

Consider `CCC(=O)COc1ccc(NC(NC(=O)C(C(F)(F)F)C(F)(F)F)(C(F)(F)F)C(F)(F)F)cc1`, for which the result was inactive.

`CCC(C)c1c(N)o[nH]c1=O` (stereo not given): the EC50 was more than 200 µM and the concentration for half-maximal inhibition (IC50) is more than 200 µM.

On to `C=C(CCCCCOCOCCOC)[Si](C)(C)C`, for which the EC50 was more than 26.3 µM and the IC50 is more than 26.3 µM.

For the compound `COc1cc(C)cc2c(-c3c(OC(C)=O)cc(OC(C)=O)c4c3C[C@H](C)N(C(C)=O)[C@H]4C)cc(-c3cc(-c4c(OC(C)=O)cc(OC(C)=O)c5c4C[C@H](C)N(C(C)=O)[C@H]5C)c4cc(C)cc(OC)c4c3O)c(O)c12`, the EC50 is more than 200 µM and the IC50 was 40.7 µM.

`C=C1C(=O)C[C@@]23CCC[C@@]12CC(O)C3` (stereo not given in full): the result was inactive.

As to `O=C(Nc1cc2c(cc1OCc1ccccc1)N(S(=O)(=O)c1ccccc1)[C@@H]1c3ccccc3OC[C@H]21)c1ccccc1`, the EC50 was more than 200 µM and the IC50 is more than 200 µM.

Regarding `NC(S(=O)(=O)O)S(=O)(=O)O`, the EC50 is more than 200 µM and the IC50 stood at 91.2 µM.

`CCOC(=O)/N=N\C(=O)OCC`: the EC50 is more than 200 µM and the IC50 was more than 200 µM.

As to `C[C@H]1c2c(n(C3OC(CO)C(O)C3O)c(=O)[nH]c2=O)O[C@@H]1c1ccccc1` (stereo not given in full), the EC50 is more than 200 µM and the IC50 was more than 200 µM.

As for `CCCCOC(=O)NC(Nc1cccc(C(F)(F)F)c1)(C(F)(F)F)C(F)(F)F`, the EC50 was more than 200 µM and the IC50 was 50.1 µM.

As to `CC1(C)CCCC2C1=NOC2O` (stereo not given), the EC50 is more than 1480 µM and the IC50 was more than 1480 µM.

`C[C@]12CC[C@H]3[C@@H](CCC4=C/C(=N/OCCN5CCCCC5)CC[C@@]43C)[C@@H]1CC[C@@H]2O`: the EC50 was more than 200 µM and the IC50 was 4.17 µM.

As to `Nc1ccn(C2CC(F)C(CO)O2)c(=O)n1` (stereo not given), the EC50 is 0.148 µM and the IC50 turned out to be 427 µM.

Take `O=C(Nc1cccc([N+](=O)[O-])c1)OCc1ccc2c(c1)OCO2`: the outcome was inactive.

Take `S=C(S)N1CCN(c2ccccc2)CC1`: the EC50 was more than 200 µM and the IC50 is more than 200 µM.

Regarding `O=C(CCCC[n+]1ccccc1)Sc1ccccc1C(=O)Nc1ccc(S(=O)(=O)Nc2ccnn2-c2ccccc2)cc1`, the EC50 is 6.17 µM and the IC50 stood at 35.5 µM.

Consider `CC1(C)CCc2ccc(OCCC#N)cc2O1`, for which the outcome was inactive.

Take `Cc1csc2nc(-c3ccncc3)cn12`: the EC50 was more than 417 µM and the IC50 was 105 µM.

For the compound `O=C1C[C@@]23CCC4(CC2CCC[C@H]3O1)OCCO4` (stereo not given in full), the result was inactive.

For the compound `CC(C)(C)[Si](C)(C)OCC1OC(n2ccc(=O)[nH]c2=O)C(O[Si](C)(C)C(C)(C)C)C1C/C=[N+](/[O-])CC1OC(n2ccc(=O)[nH]c2=O)C(O[Si](C)(C)C(C)(C)C)C1O[Si](C)(C)C(C)(C)C` (stereo not given), the EC50 was more than 100 µM and the IC50 is more than 100 µM.

`CCCC(=O)C1=C(O)C(Cc2c(O)c(C)c(O)c(C(=O)CCC)c2O)=C(O)C(C)(C)C1=O`: the EC50 is more than 200 µM and the IC50 was 10.7 µM.

For `COc1cc(Br)c(C=Nc2cccc3ccc(OS(=O)(=O)c4cccc([N+](=O)[O-])c4)cc23)cc1OC`, the outcome was inactive.

On to `Fc1cccc(F)c1C1SCc2nc3ccccc3n21` (stereo not given), for which the IC50 is 41.7 µM and 56.2 µM.

For `CCC[CH2][Sn]([CH2]CCC)([O]C(=O)c1cccc(F)c1F)[O][Sn]([CH2]CCC)([CH2]CCC)[O]C(=O)c1cccc(F)c1F`, the EC50 is more than 6.61 µM and the IC50 amounted to 4.79 µM.

With `C[N+]1(C)CC2C3C=C(I)C(C3)C2C1` (stereo not given), the EC50 is more than 214 µM and the IC50 was more than 214 µM.

`Cn1c2ccccc2c(=NNc2ccccc2C(=O)O)c2ccccc21`: the EC50 is more than 200 µM and the IC50 was found to be 19.5 µM.

Regarding `COc1ccc2[nH]c3c(C)c4ccnc(NCCCN(C)CCCNC(=O)NCCCN(C)CCCNc5nccc6c(C)c7[nH]c8ccc(OC)cc8c7c(C)c56)c4c(C)c3c2c1`, the EC50 was more than 5.01 µM and the concentration for half-maximal inhibition (IC50) worked out at 0.891 µM.

Turning to `COc1nc(C(=O)NNC(=O)c2nc(OC)c3ccccc3c2-c2ccccc2)c(-c2ccccc2)c2ccccc12`, the result was inactive.

Turning to `Cc1cc(N(CCC#N)CCC#N)ccc1N=Nc1cccc(Cl)c1`, the EC50 is more than 7.76 µM and the IC50 was more than 7.76 µM.

Take `COc1c2c(cc3oc(C)cc(=O)c13)OC(=N)C(C(N)=O)C2CC(=O)c1ccc(N)cc1` (stereo not given): the EC50 was 45.7 µM and the IC50 is more than 100 µM.

Consider `O=S1(=O)C/C(=C\N2CCOCC2)c2ccccc21`, for which the EC50 was more than 200 µM and the IC50 was more than 200 µM.

In the case of `CCC1Sc2cc(OC)cc3c2N(CCN3)C1=O` (stereo not given), the EC50 was more than 200 µM and the IC50 was found to be 57.5 µM.

On to `Nc1cc(N)c(N)cc1N`, for which the EC50 was more than 200 µM and the IC50 was 38 µM.

As for `CNc1ccccc1S(=O)(=O)c1ccccc1C(F)(F)F`, the EC50 was more than 200 µM and the IC50 was 17 µM.

As to `CC(C)OP(=O)(OC(C)C)C(N(C)C)P(=O)(OC(C)C)OC(C)C.[Cl][Sn]([Cl])([Cl])[c]1ccccc1`, the result was inactive.

With `NS(=O)(=O)c1cc2c(cc1Cl)NCNS2(=O)=O`, the EC50 was more than 832 µM and the IC50 came to 437 µM.

As for `C(=C1\CCC/C(=C/c2ccccc2)C1=NNc1ccccc1)/c1ccccc1`, the EC50 is more than 14.5 µM and the IC50 is more than 14.5 µM.

On to `Cc1cn(C2CC(N=[N+]=[N-])C(COC(=O)CCOCCCCCCCCN=[N+]=[N-])O2)c(=O)[nH]c1=O` (stereo not given), for which the EC50 is 0.00631 µM and the IC50 was found to be 64.6 µM.

Take `Cn1c2c(c3ccccc31)C(=O)CC2(C)C`: the EC50 was more than 123 µM and the IC50 worked out at 66.1 µM.

Turning to `CCC/C(Cl)=N/OC(=O)Nc1cccc(F)c1`, the EC50 was more than 20 µM and the IC50 is 3.16 µM.

As to `CO/C(=N\N=C\c1cccc(C(F)(F)F)c1)c1ccncc1`, the EC50 was more than 117 µM and the IC50 was found to be 12.6 µM.

As for `Brc1ccc(N2N=NC3C4CC(C5CCCC54)C32)cc1` (stereo not given), the EC50 was more than 5.62 µM and the IC50 was more than 5.62 µM.

`CC1(C)COC(c2cccc3c2C2C=CC3O2)=N1` (stereo not given): the EC50 was more than 200 µM and the IC50 was more than 200 µM.

For the compound `C1CN(P(N2CCOCC2)N2CCOCC2)CCO1`, the EC50 is more than 871 µM and the IC50 is more than 871 µM.

On to `Cc1ccc(SC(C)/C=C/NNC2=NC(c3ccccc3)C(c3ccccc3)=NN2)cc1` (stereo not given), for which the EC50 was more than 22.4 µM and the IC50 is more than 22.4 µM.

Consider `Cc1ccc2cccc(-c3cccc4ccccc34)c2n1`, for which the EC50 was more than 200 µM and the IC50 amounted to 10.5 µM.

`O=C1C(=O)c2ccccc2C(O)=C1Sc1ccccc1`: the EC50 was more than 200 µM and the IC50 was found to be 13.5 µM.

For the compound `CCP(=O)(CC)C(Cl)Cl`, the EC50 was more than 200 µM and the IC50 was more than 200 µM.

On to `Cc1cccc(C(C)C)c1NC(=O)C(=O)CC(=O)c1sc(Nc2ccccc2Cl)nc1C`, for which the EC50 is more than 200 µM and the IC50 was more than 200 µM.
